Experimental data from ChEMBL document CHEMBL1141684, “Synthesis and evaluation of cis-3,4-disubstituted piperidines as potent CC chemokine receptor 2 (CCR2) antagonists” (Bioorg Med Chem Lett, 2008).
pIC50: −log10 of the molar value.

Legend:
[1] = target: T1, C-C chemokine receptor type 2 (Homo sapiens, UniProt P41597); experiment: Displacement of radiolabeled MCP1 from CCR2 in human PBMC by millipore filter plate assay
Target sequence in this assay (P41597 whole entry): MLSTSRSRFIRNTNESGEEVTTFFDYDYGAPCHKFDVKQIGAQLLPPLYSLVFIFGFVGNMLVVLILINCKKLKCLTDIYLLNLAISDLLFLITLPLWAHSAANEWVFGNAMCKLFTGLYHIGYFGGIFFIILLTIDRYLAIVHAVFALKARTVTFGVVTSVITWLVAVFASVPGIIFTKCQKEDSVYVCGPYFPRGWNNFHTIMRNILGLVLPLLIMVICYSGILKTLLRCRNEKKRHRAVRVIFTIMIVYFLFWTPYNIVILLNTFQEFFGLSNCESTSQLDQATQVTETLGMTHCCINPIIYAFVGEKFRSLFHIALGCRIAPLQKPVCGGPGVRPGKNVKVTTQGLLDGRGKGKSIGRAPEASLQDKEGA

[2] = target: T2, C-C chemokine receptor type 3 (Homo sapiens) (UniProt P51677); experiment: Inhibition of CCR3 at 10 uM
T2 sequence (whole entry): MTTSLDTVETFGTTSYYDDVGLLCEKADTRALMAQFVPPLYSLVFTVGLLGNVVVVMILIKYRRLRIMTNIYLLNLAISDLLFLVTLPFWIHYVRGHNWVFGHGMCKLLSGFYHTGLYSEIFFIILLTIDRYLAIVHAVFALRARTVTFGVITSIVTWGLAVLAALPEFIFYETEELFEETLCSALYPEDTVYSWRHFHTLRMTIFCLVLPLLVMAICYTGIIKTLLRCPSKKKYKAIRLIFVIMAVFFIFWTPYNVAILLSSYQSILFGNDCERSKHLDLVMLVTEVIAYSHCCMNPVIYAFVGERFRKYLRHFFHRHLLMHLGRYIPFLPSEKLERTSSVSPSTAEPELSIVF

[3] = target: T1, C-C chemokine receptor type 2; experiment: Antagonist activity at CCR2 in human PBMC assessed as MCP1-induced calcium flux by fluorescence-imaging plate assay; format: functional
Target sequence in this assay (P41597 whole entry): as the sequence (P41597 whole entry) above

[4] = target: T1, C-C chemokine receptor type 2; experiment: Binding affinity to wild type CCR2
Target sequence in this assay (P41597 whole entry): as the sequence (P41597 whole entry) above

[5] = target: C-C chemokine receptor type 2 (Homo sapiens, UniProt P41597, E291A); experiment: Binding affinity to CCR2 E291A mutant
[6] = target: T1, C-C chemokine receptor type 2; experiment: Displacement of radiolabeled MCP1 from CCR2 in human PBMC at 1 uM by millipore filter plate assay
Target sequence in this assay (P41597 whole entry, looked up): as the sequence (P41597 whole entry) above

Sequence of C-C chemokine receptor type 2 (Homo sapiens, UniProt P41597, E291A) (P41597 whole entry E291A): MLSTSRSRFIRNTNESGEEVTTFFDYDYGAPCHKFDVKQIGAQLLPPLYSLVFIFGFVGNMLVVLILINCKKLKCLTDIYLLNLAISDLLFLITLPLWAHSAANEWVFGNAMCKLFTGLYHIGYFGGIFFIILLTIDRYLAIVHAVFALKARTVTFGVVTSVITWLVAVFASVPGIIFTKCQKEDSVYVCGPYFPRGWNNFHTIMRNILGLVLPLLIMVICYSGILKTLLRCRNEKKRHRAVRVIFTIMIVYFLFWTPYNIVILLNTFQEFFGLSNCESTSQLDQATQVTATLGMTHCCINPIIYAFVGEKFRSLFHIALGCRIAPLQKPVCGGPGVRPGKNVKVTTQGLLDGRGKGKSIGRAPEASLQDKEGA

Row | Compound | pIC50 [1] | inhibition [2] [%] | pIC50 [3] | pIC50 [4] | pIC50 [5] | Activity [6] [%]
1 | CCCN1CCC(NCc2ccc(SC)cc2)C(NC(=O)CNC(=O)c2cc(C(F)(F)F)ccc2NC(=O)N2CCCC2)C1 (racemic) | 8.06 | 38.2 | 7.68 |  |  | 
2 | CSc1ccc(C(=O)NC2CCNCC2NC(=O)CNC(=O)c2cc(C(F)(F)F)ccc2N)cc1 (racemic) | 7.55 | 19.7 | 7.12 | 7.92 | 6.42 | 
3 | CCSc1ccc(CNC2CCNCC2NC(=O)CNC(=O)c2cc(C(F)(F)F)ccc2N)cc1 (racemic) | 6.91 |  |  |  |  | 
4 | CSc1ccc(CNC2CCNCC2NC(=O)CNC(=O)c2cccc(C(F)(F)F)c2)cc1 (racemic) | 7.01 | 46 | 6.29 |  |  | 
5 | CSc1ccc(CNC2CCCCC2NC(=O)CNC(=O)c2cc(C(F)(F)F)ccc2N)cc1 (racemic) | 5.93 |  |  |  |  | 
6 | Nc1ccc(C(F)(F)F)cc1C(=O)NCC(=O)NC1CNCCC1NCc1ccc(Cl)cc1 (racemic) | 7.67 | 90 | 7.72 |  |  | 
7 | CSc1ccc(CNC2CCN(C(C)=O)CC2NC(=O)CNC(=O)c2cccc(C(F)(F)F)c2)cc1 (racemic) | 6.33 |  |  |  |  | 
8 | CSc1ccc(C(=O)NC2CCN(C(=O)OC(C)(C)C)CC2NC(=O)CNC(=O)c2cc(C(F)(F)F)ccc2NC(=O)OC(C)(C)C)cc1 (racemic) |  |  |  |  |  | 0
9 | CSc1ccc(CNC2CCN(C(=O)OC(C)(C)C)CC2NC(=O)CNC(=O)c2cccc(C(F)(F)F)c2)cc1 (racemic) |  |  |  |  |  | 0

Further compounds by rising pIC50 [1], results first:

Row | pIC50 [1] | inhibition [2] [%] | pIC50 [3] | pIC50 [4] | pIC50 [5] | Activity [6] [%] | Compound
10 | 8.10 | 75 | 7.89 |  |  |  | CCCCN1CCC(NCc2ccc(SC)cc2)C(NC(=O)CNC(=O)c2cc(C(F)(F)F)ccc2N)C1 (racemic)
11 | 8.20 | 47.3 | 8.15 | 8.21 | 6.13 |  | CSc1ccc(CNC2CCNCC2NC(=O)CNC(=O)c2cc(C(F)(F)F)ccc2N)cc1 (racemic)
12 | 8.21 |  | 8.22 |  |  |  | CCCN1CCC(NC(=O)c2ccc(SC)cc2)C(NC(=O)CNC(=O)c2cc(N)cc(C(F)(F)F)c2)C1 (racemic)
13 | 8.21 | 49.3 | 8.52 |  |  |  | CCCN1CCC(NCc2ccc(SC)cc2)C(NC(=O)CNC(=O)c2cc(N)cc(C(F)(F)F)c2)C1 (racemic)
14 | 8.37 | 77 | 7.89 |  |  |  | CCCCN1CCC(NC(=O)c2ccc(SC)cc2)C(NC(=O)CNC(=O)c2cc(C(F)(F)F)ccc2N)C1 (racemic)
15 | 8.42 | 5.5 | 8.52 |  |  |  | CCCN1CCC(NCc2ccc(SC)cc2)C(NC(=O)CNC(=O)c2cc(C(F)(F)F)ccc2NC(=O)NC)C1 (racemic)
16 | 8.47 | 47 | 8.70 |  |  |  | CCCN1CCC(NCc2ccc(SC)cc2)C(NC(=O)CNC(=O)c2cc(C(F)(F)F)ccc2N)C1 (racemic)
17 | 8.74 | 43.1 | 8.70 |  |  |  | CSc1ccc(C(=O)NC2CCN(C)CC2NC(=O)CNC(=O)c2cc(C(F)(F)F)ccc2N)cc1 (racemic)
18 | 9.02 | 56 | 8.30 |  |  |  | CSc1ccc(CNC2CCN(C)CC2NC(=O)CNC(=O)c2cc(C(F)(F)F)ccc2N)cc1 (racemic)
